# Source: patent US9125913B2, “Bcl-2-selective apoptosis-inducing agents for the treatment of cancer and immune diseases” (AbbVie Inc., priority 2008, dated 2015)
# Tested on: GST-Bcl-2
# Assay: TR-FRET binding assay, Bcl-2
# Conditions: TR-FRET Ki values
# In short: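 Compounds serially diluted in DMSO from 50 μM (2× starting concentration, 10% DMSO), mixed with GST-tagged protein, F-Bak peptide probe and Tb-labeled antibody, incubated 3 h at room temperature.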
row,SMILES,Binding selectivity ratio (Bcl-XL Ki/Bcl-2 Ki)
1,"CC1(C)CCC(CN2CCN(c3ccc(C(=O)NS(=O)(=O)c4ccc(NCC5(O)CCCCC5)c([N+](=O)[O-])c4)c(Oc4ccc5[nH]ccc5c4)c3)CC2)=C(c2ccc(Cl)cc2)C1 [EXAMPLE 238, 4-(4-{[2-(4-chlorophenyl)-4,4-dimethylcyclohex-1-en-1-yl]methyl}piperazin-1-yl)-N-[(4-{[(1-hydroxycyclohexyl)methyl]amino}-3-nitrophenyl)sulfonyl]-2-(1H-indol-5-yloxy)benzamide]",>1534.3
2,"CC1(C)CCC(CN2CCN(c3ccc(C(=O)NS(=O)(=O)c4cnc(OCC5CCOCC5)c(Br)c4)c(Oc4ccc5[nH]ccc5c4)c3)CC2)=C(c2ccc(Cl)cc2)C1 [EXAMPLE 329, N-{[5-bromo-6-(tetrahydro-2H-pyran-4-ylmethoxy)pyridin-3-yl]sulfonyl}-4-(4-{[2-(4-chlorophenyl)-4,4-dimethylcyclohex-1-en-1-yl]methyl}piperazin-1-yl)-2-(1H-indol-5-yloxy)benzamide]",>2319.5
3,"CN(C)CCCNc1ccc(S(=O)(=O)NC(=O)c2ccc(N3CCN(Cc4ccccc4-c4ccc(Cl)cc4)CC3)cc2Oc2cccc3cnccc23)cc1[N+](=O)[O-] [Example 42, 4-{4-[(4′-chloro-1,1′-biphenyl-2-yl)methyl]piperazin-1-yl}-N-[(4-{[3-(dimethylamino)propyl]amino}-3-nitrophenyl)sulfonyl]-2-(isoquinolin-5-yloxy)benzamide]",80
4,"CC1(C)CCC(CN2CCN(c3ccc(C(=O)NS(=O)(=O)c4ccc(NCCN5CCCC5=O)c([N+](=O)[O-])c4)c(Oc4ccc5[nH]ccc5c4)c3)CC2)=C(c2ccc(Cl)cc2)C1 [EXAMPLE 251, 4-(4-{[2-(4-chlorophenyl)-4,4-dimethylcyclohex-1-en-1-yl]methyl}piperazin-1-yl)-2-(1H-indol-5-yloxy)-N-[(3-nitro-4-{[2-(2-oxopyrrolidin-1-yl)ethyl]amino}phenyl)sulfonyl]benzamide]",1438.5
5,"CN1CC(Nc2ccc(S(=O)(=O)NC(=O)c3ccc(N4CCN(CC5=C(c6ccc(Cl)cc6)CC(C)(C)CC5)CC4)cc3Oc3ccc4[nH]ccc4c3)cc2[N+](=O)[O-])CCC1=O (centres unmarked) [EXAMPLE 282, 4-(4-{[2-(4-chlorophenyl)-4,4-dimethylcyclohex-1-en-1-yl]methyl}piperazin-1-yl)-2-(1H-indol-5-yloxy)-N-({4-[(1-methyl-6-oxopiperidin-3-yl)amino]-3-nitrophenyl}sulfonyl)benzamide]",3434.4
6,"CC1(C)CCC(CN2CCN(c3ccc(C(=O)NS(=O)(=O)c4ccc(NCC5CCS(=O)(=O)C5)c([N+](=O)[O-])c4)c(Oc4ccc5[nH]ccc5c4)c3)CC2)=C(c2ccc(Cl)cc2)C1 (centres unmarked) [EXAMPLE 275, 4-(4-{[2-(4-chlorophenyl)-4,4-dimethylcyclohex-1-en-1-yl]methyl}piperazin-1-yl)-N-[(4-{[(1,1-dioxidotetrahydrothien-3-yl)methyl]amino}-3-nitrophenyl)sulfonyl]-2-(1H-indol-5-yloxy)benzamide]",>6832.4
7,"CC(C1=C(c2ccc(Cl)cc2)CC(C)(C)CC1)N1CCN(c2ccc(C(=O)NS(=O)(=O)c3ccc(NCCCN4CCOCC4)c([N+](=O)[O-])c3)c(Oc3ccc4[nH]ccc4c3)c2)CC1 (centres unmarked) [EXAMPLE 257, 4-(4-{1-[2-(4-chlorophenyl)-4,4-dimethylcyclohex-1-en-1-yl]ethyl}piperazin-1-yl)-2-(1H-indol-5-yloxy)-N-({4-[(3-morpholin-4-ylpropyl)amino]-3-nitrophenyl}sulfonyl)benzamide]",100.2
8,"CC1(C)CCC(CN2CCN(c3ccc(C(=O)NS(=O)(=O)c4ccc(CCC5CCOCC5)c([N+](=O)[O-])c4)c(Oc4ccc5[nH]ccc5c4)c3)CC2)=C(c2ccc(Cl)cc2)C1 [EXAMPLE 296, 4-(4-{[2-(4-chlorophenyl)-4,4-dimethylcyclohex-1-en-1-yl]methyl}piperazin-1-yl)-2-(1H-indol-5-yloxy)-N-{[3-nitro-4-(2-tetrahydro-2H-pyran-4-ylethyl)phenyl]sulfonyl}benzamide]",>1014.4
9,"CN(C)CC(=O)N1CCO[C@H](CNc2ccc(S(=O)(=O)NC(=O)c3ccc(N4CCN(CC5=C(c6ccc(Cl)cc6)CC(C)(C)CC5)CC4)cc3Oc3cccc4[nH]cnc34)cc2[N+](=O)[O-])C1 [EXAMPLE 437, 2-(1H-benzimidazol-4-yloxy)-4-(4-{[2-(4-chlorophenyl)-4,4-dimethylcyclohex-1-en-1-yl]methyl}piperazin-1-yl)-N-{[4-({[(2R)-4-(N,N-dimethylglycyl)morpholin-2-yl]methyl}amino)-3-nitrophenyl]sulfonyl}benzamide]",51.4
10,"O=C(NS(=O)(=O)c1ccc(OCC2CCOCC2)c([N+](=O)[O-])c1)c1ccc(N2CCN(Cc3ccc(C(F)(F)F)cc3-c3ccc(Cl)cc3)CC2)cc1Oc1ccc2[nH]ccc2c1 [EXAMPLE 340, 4-(4-{[4′-chloro-5-(trifluoromethyl)-1,1′-biphenyl-2-yl]methyl}piperazin-1-yl)-2-(1H-indol-5-yloxy)-N-{[3-nitro-4-(tetrahydro-2H-pyran-4-ylmethoxy)phenyl]sulfonyl}benzamide]",>86.9
11,"O=C(NS(=O)(=O)c1ccc(N2C(=O)C3CCC3C2=O)cc1)c1ccc(N2CCN(Cc3ccccc3-c3ccc(Cl)cc3)CC2)cc1Oc1ccccc1 (centres unmarked) [Example 28, 4-{4-[(4′-chloro-1,1′-biphenyl-2-yl)methyl]piperazin-1-yl}-N-{[4-(2,4-dioxo-3-azabicyclo[3.2.0]hept-3-yl)phenyl]sulfonyl}-2-phenoxybenzamide]",>19.6
12,"CC1(C)CCC(CN2CCN(c3ccc(C(=O)NS(=O)(=O)c4ccc(NCC5(CO)CCOCC5)c([N+](=O)[O-])c4)c(Oc4ccc5[nH]ccc5c4)c3)CC2)=C(c2ccc(Cl)cc2)C1 [EXAMPLE 232, 4-(4-{[2-(4-chlorophenyl)-4,4-dimethylcyclohex-1-en-1-yl]methyl}piperazin-1-yl)-N-{[4-({[4-(hydroxymethyl)tetrahydro-2H-pyran-4-yl]methyl}amino)-3-nitrophenyl]sulfonyl}-2-(1H-indol-5-yloxy)benzamide]",429.1
13,"CC1(C)CCC(CN2CCN(c3ccc(C(=O)NS(=O)(=O)c4ccc(NC5CCN(C6CC6)CC5)c([N+](=O)[O-])c4)c(Oc4cccc5[nH]cnc45)c3)CC2)=C(c2ccc(Cl)cc2)C1 [EXAMPLE 451, 2-(1H-benzimidazol-4-yloxy)-4-(4-{[2-(4-chlorophenyl)-4,4-dimethylcyclohex-1-en-1-yl]methyl}piperazin-1-yl)-N-({4-[(1-cyclopropylpiperidin-4-yl)amino]-3-nitrophenyl}sulfonyl)benzamide]",359.92
14,"CC1(C)CCC(CN2CCN(c3ccc(C(=O)NS(=O)(=O)c4ccc(NC5CCN(C6CCOCC6)CC5)c([N+](=O)[O-])c4)c(Nc4cccnc4)c3)CC2)=C(c2ccc(Cl)cc2)C1 [EXAMPLE 397, 4-(4-{[2-(4-chlorophenyl)-4,4-dimethylcyclohex-1-en-1-yl]methyl}piperazin-1-yl)-N-({3-nitro-4-[(1-tetrahydro-2H-pyran-4-ylpiperidin-4-yl)amino]phenyl}sulfonyl)-2-(pyridin-3-ylamino)benzamide]",>28730.6285913286
